# In a melting point compilation (Tetko et al.; mined from patent text by program, amines drawn as free bases though some values may be those of a salt):
row,SMILES,melting point [°C]
1,Cc1cc(OCCOc2ccc3ccccc3c2)ccc1C(=O)C(=O)O,129 to 131
2,CCn1c(=O)c2[nH]c(/C=C/c3cccc(F)c3)nc2n(CC)c1=O,> 270
3,CC(C)Oc1nccc2c1C(c1ccccc1C(F)(F)F)c1c(ccnc1OC(C)C)N2,196 to 197
4,O=C(NC(=O)c1c(Cl)cccc1Cl)Nc1ccc(OC(F)(F)C(Cl)Cl)cc1,211 to 213
5,Cc1nnc2n1-c1sc(CCc3ccccc3)cc1C(c1ccccc1Cl)=NC2,106 to 108
6,Cn1cnc(COc2nn3c(-c4cccc(F)c4)nnc3cc2-c2ccccc2)n1,250 to 251
7,O=c1[nH]c2cc3c(cc2nc1-c1ccccc1)OC(F)(F)O3,291 to 292
8,CCCn1ccc2c(NCCc3ccc(O)cc3)cccc2c1=O,170 to 171
9,COc1ccc2[nH]cc(SCCN=C3CCCN3C)c2c1,154 to 157
10,O=C(c1cccc(Br)c1)C(Br)C(Br)c1ccc(Br)cc1 (stereo unspecified),158
11,O=C(NC(=O)C(c1ccccc1)c1ccccc1)OC1CCCCC1,117 to 119
12,Cn1nc(C(F)(F)C(F)(F)F)cc1O,183 to 188
13,CN(C)c1ccc2c(c1)nc(/C=C/c1ccccc1)n2-c1ccccn1,170 to 171
14,O=C(O)CC[C@H](NC(=O)c1ccc(CCn2cnc3nccc-3c2O)cc1)C(=O)O,> 230
15,CCc1[nH]n(C2CCCC2)c2nc(-c3ccccc3-n3ccnc3)nc(=O)c1-2,192 to 194
16,CCOC(=O)c1cc(Cl)cnc1NC(=O)Cc1cccc(Oc2ccccc2)c1,103 to 104
17,CN1C(=O)CC(=O)N(C2CCCCC2)C1=O,81 to 82
18,CCN1CCN(c2cc(-c3ccc(O)cc3)c3c(n2)CCCCCC3)CC1,250 to 253
19,COc1cc2c(cc1OC)NC1=C(C2)C(=O)N(C)CN1,225 to 230
20,CCC(=O)OC1(C(=O)CCl)C(C)CC2C3CCC4CC(=O)CCC4(C)C3=CCC21C (stereo unspecified),140 to 142
21,CCOC(=O)c1c(-c2ccccc2Cl)c2cc(Cl)ccc2[nH]c1=O,223 to 224
22,Cc1ccc(N2CCN(CCC3NC(=O)c4ccccc43)CC2)cc1C (stereo unspecified),167 to 169
23,COC(=O)C=C(Nc1ccccc1C#N)C(=O)OC,116 to 118
24,O=C1CCc2c(Cl)cc(Cl)c(OS(=O)(=O)C(F)(F)F)c21,90 to 96
25,COc1ccc([C@@H]2CC(=O)N3C(=O)CC[C@H]23)cc1 (relative stereo),125 to 127
26,COc1cn(-c2ccc(C#CC3CC3)cc2F)nc(-c2ccnn2-c2ccccc2)c1=O,145 to 146

row,SMILES,melting point [°C]
1,CCn1c(OC(C)C)n[nH]c1=O,69 to 70
2,COC(=O)CCn1cc(-c2cccnc2)c2cc([N+](=O)[O-])ccc21,123 to 125
3,CC(C)(C)OC(=O)N1CCC(c2c(F)cc(N3C[C@H](CN=[N+]=[N-])OC3=O)cc2F)CC1,125 to 127
4,CN1C(=O)Cc2c(Cl)cc(Cl)cc21,144 to 145
5,CCOC(=O)c1cn(-c2cccnc2)nc1Cl,90 to 93
6,COc1ccc(Nc2c(C#N)cnc3cc(OC)c(OC)cc23)cc1OC,230 to 240
7,CN1CC(C(=O)COC(=O)C(C)(C)C)CC2c3cccc4[nH]cc(c34)CC21 (stereo unspecified),155 to 156
8,CCCCCCCCCCCCCCCCCCNC(=O)C(N)=O,169
9,COc1cccc(C(=O)N2CCCC3=C2CCc2cc(Cl)ccc23)c1,133
10,Cc1ccc(N(C#N)C(=O)CCCCC(=O)N(C#N)c2ccc(C)cc2C)c(C)c1,120 to 122
11,CC(C)(C)c1ccc(N2CCOCC2)c(NC(=O)C(F)(F)F)c1,89 to 90
12,CNc1nonc1-c1nc2ccccc2n1CC(=O)c1ccc(Cl)cc1,210 to 214
13,Nc1cc(C(F)(F)F)cnc1N,97 to 99
14,O=C(NCC(F)(F)F)NCC(F)(F)F,154 to 155
15,CCCC[Si](C)(C)CCSCCNC(=O)n1cc(F)c(=O)[nH]c1=O,71 to 72
16,Cc1ccc(N2C(=O)C(O)=C(C(=O)c3ccc(C(C)C)cc3)C2c2ccc(F)cc2)nn1 (stereo unspecified),273 to 278
17,CC(C)C[C@H](NC(=O)OC(C)(C)C)C(=O)N[C@@H](C(C)C)[C@@H](O)c1c(-c2ccc(F)cc2)c1=O,90 to 96
18,COc1ccc2c(ccc3cc(OC)c(OC)c(OC)c32)c1,142 to 144
19,N#Cc1ccc2c(c1)CCN(C1CCC3(CC1)OCCO3)C2,127
20,Nc1ncnc2c1ncn2OCCCCP(=O)(O)O,265 to 268
21,CCOC1=CCc2c(OC)ccc(OC)c2C1,102 to 103
22,CNCc1ccc(-c2ccc(OC)c(Br)c2)cc1,65 to 68
23,COc1ccc(CNC(Nc2ccccc2)=C(C#N)C(=O)OC(C)(C)C)cc1,158 to 159
24,CC(=O)NC[C@H]1CN(c2cc(F)c(N3CCC(Cc4nnn[nH]4)CC3)c(F)c2)C(=O)O1,176 to 178
25,CC(C)CNC(=O)[C@H](C)C[C@H](O)[C@H](CC1CCCCC1)NC(=O)[C@H](Cc1cscn1)NC(=O)[C@@H](CC(=O)N(C)Cc1ccccc1)Cc1ccccc1,118 to 120
26,CCCCCCCCCCOc1cc(OCCCCCCc2cccc(O)c2O)cc(C(=O)O)c1,86 to 88

row,SMILES,melting point [°C]
1,NC(=O)c1occc1C(=O)NC1CCN(Cc2ccc3ccccc3c2)CC1,157 to 159
2,COc1cc(CN2CCN(c3ccccc3C)CC2)cc(OC)c1OC,89
3,CCOC(=O)C(=O)c1cn(CC)c2cc(-c3ccc(C(F)(F)F)cc3)ccc12,139 to 141
4,CCOC=Nc1sccc1C#N,38
5,CC(C)(C)OC(=O)Nc1ccc(OC2CNC2)cc1,184 to 186
6,CCCCCCCCC(=O)NC1CC(C)(C)N(CC#N)C(C)(C)C1,68
7,CCCc1c(OCCCCCCc2ccc(C(=O)CCCC(=O)O)cc2CCC(=O)O)ccc2c1OCCC2=O,136 to 139
8,O=c1oc(-c2ccccc2)cc(O)c1C(SC1CCCCC1)c1ccccc1 (stereo unspecified),189 to 191
9,O=S(c1ccccc1-c1ccccc1)C(F)(F)F (stereo unspecified),57 to 58
10,Cn1c(C(F)(F)F)cc(=O)n(-c2cc(OC(=O)CCl)c(Cl)cc2F)c1=O,89 to 92
11,CC(=O)SCCC(=O)N1[C@@H](c2ccccc2O)SC[C@H]1C(=O)N[C@@H](CC(C)C)C(=O)O,78 to 84
12,CC(C)(/C=C\F)C(=O)Nc1ccc(Br)cc1,87 to 90
13,CCCCCCS(=O)(=O)Oc1c(I)cc(I)cc1I,70 to 71
14,Cc1nc2c([N+](=O)[O-])cc(Br)cc2n1COCc1ccccc1,106 to 109
15,COC(=O)c1ccc(OCCCCCOc2ccc(C#N)cc2)c(OC)c1,105 to 107
16,CCCCCNC(=O)N1CCC(c2nc(C3=NOC(c4ccccc4)C3)cs2)CC1 (stereo unspecified),132 to 134
17,CN(C)C1=C(c2cccc(C(F)(F)F)c2)C(=O)OC1,110
18,BrCC=C1c2ccccc2C=Cc2ccccc21,87.5 to 89.5
19,COc1cccc2c1CCc1c-2occ(C=O)c1=O,201 to 202
20,COCCc1ccc(OCC(O)CN2CCC(N3CCCNC3=O)CC2)cc1 (stereo unspecified),113 to 115
21,CN1C(=O)CC[C@]2(C)c3ccc(-c4ccc(C(F)(F)F)cc4[N+](=O)[O-])cc3CC[C@@H]12,55 to 57
22,COc1ccc(S(=O)(=O)N2CCc3cccc(-c4ccc(C(=O)O)cc4)c32)cc1,130 to 132
23,CCOc1cc(CCCOc2c(C)cc(-c3noc(C4CC4)n3)cc2C)on1,70 to 71
24,COC(=O)NCc1nc2ccn(Cc3ccc(F)cc3)cc-2n1,179
25,C[C@@H](Nc1nnc(-c2ccccc2)c2ccccc12)C1CCCCC1,164 to 167
26,O=C(O)Cc1cc(C(=O)C=Cc2ccc(C(=O)O)cc2)ccc1O,> 260

row,SMILES,melting point [°C]
1,CC(C)OC(=O)Cn1c(=O)n(C)c(=O)n(-c2cc(N=c3sc(=O)n4n3CCCCC4)c(F)cc2Cl)c1=O,95 to 106
2,CC(C)c1c(C=O)c(-c2ccc(F)cc2)nn1-c1ccccc1,103 to 105
3,CCCCCCCCCCCCCC(=O)NCCCSc1ccncc1,80 to 81
4,O=S1(=O)CCN2CCCC(c3ccc(C(F)(F)F)cc3)C2=N1 (stereo unspecified),226 to 227
5,CCCCN(CCCC)c1ccc(C=C2C(=C(C#N)C#N)c3ccccc3C2=C(C#N)C#N)c(OC)c1,195 to 198
6,Cc1c(F)c(F)cc(C#N)c1Cl,59 to 61
7,OC(c1ccc2c(c1)CCN2Cc1ccccc1)(C(F)(F)F)C(F)(F)F,85 to 90
8,Cc1ccccc1C(=O)CN1C(=O)C(NC(=O)Nc2cccc(-c3nnn[nH]3)c2)N=C(C2CCCCC2)c2cccc(C)c21 (stereo unspecified),165 to 177
9,C=Cc1ccc(OC(C)C)c(OCCN2C(=O)c3ccccc3C2=O)c1,78
10,O=S(=O)(Nc1ccc2c(OCc3ccc(-c4ccc(C(F)(F)F)cc4)cc3F)cccc2c1)C(F)(F)F,98 to 100
11,CC(C)(C)[Si](Oc1ccc(C=O)cc1)(c1ccccc1)c1ccccc1,103 to 105
12,CS(=O)(=O)C1C(O)C(CO)OC1n1ccc(=O)[nH]c1=O (stereo unspecified),227 to 228
13,CC(C)(C)OC(=O)[C@@H]1CN(Cc2ccccc2)C(=O)N1,96 to 98
14,CCCCC(CC)C(=O)Nc1ccc2ccn(Cc3ccc(C(=O)NS(=O)c4ccccc4)cc3OC)c2c1 (stereo unspecified),122 to 126
15,COc1cc(C=Nc2cc(Cl)c(N=CN(C)C)c(Cl)c2)cc(OC)c1,133 to 135
16,CN1CCc2c(Br)ccc([N+](=O)[O-])c2C1,85 to 87
17,C=Cc1ccc(-c2cc(NC(=O)C3Cc4ccccc4C3)n[nH]2)cc1,193 to 195
18,c1ccc(CN2CCC(c3nc(-c4ccc(-c5ccccc5)cc4)c[nH]3)CC2)cc1,110 to 112
19,O=[N+]([O-])c1ccccc1N1CCCc2ccccc21,69 to 71
20,CC(C)(C)[Si](C)(C)O[C@@H]1C[C@]2(O)C[C@@H](OC2=O)[C@@H]1O,90 to 94
21,CCCCC(=NNC(=O)OCC)c1ccncc1,102
22,COc1ccc2c(c1)C13CCCCC1(CC2)CCN3C (stereo unspecified),100 to 102
23,O=C(O)CN1C(=O)[C@@H](N[C@@H](CCc2ccccc2)C(=O)O)COc2ccccc21,127 to 130
